Entries after “also recorded” stand apart in the source; their conditions may differ.

Common to all, as to assay type: in vivo
The subject of one series is Wood sorrel. The series is described as follows: Foliar spray, wood sorrel. Particulars: 20 sprays of 1%, observed 2 days after exposure and later. The procedure: Wood sorrel on the ground of the greenhouse was also treated with active ingredient in order to better assess the effects of foliar treatments on multiple plant species. A patch of wood sorrel was (approximately 4′×3′) was treated with 20 sprays (mist setting) from a MAINStays ironing spray bottle. Effects of the spray were recorded 2 days after exposure.

Series [1] deals with Palmer Amaranth (Amaranthus palmeri). The series is described as follows: Toxicity assay (probit LC50), Palmer amaranth. An excerpt:
Palmer amaranth seeds were obtained from the Department of Agronomy at Iowa State University. Individual seeds were sown for each pot (1.5″ wide×3″ deep) with approximately 7.5 g of soil for each plot. Five seeds/plot were sown into numerous plots. After one month of germination, germinated plants were counted in each plot and this number was used for the total number of plants challenged per plot in the toxicity assessment
(§1) The total number of plants were counted in each plot in 24×6 hexagonal small plot planter tray. The number of germinated seeds in each plot was enumerated after one month, and for each plot this number was recorded and used as the total for each plot. Differing concentrations of thymyloxyacetic acid was applied in 5% Triton-X 100 and 1:1 molar ratio potassium hydroxide:thymyloxyacetic acid to aid in the solubility of the compound in water. Ten mL of solution was applied to each plot, and the mortality of the plants was assessed at 3 days and 2 weeks post application (for some treatments). Mortality at these time points were enumerated out of the total plants germinated in each plot at the beginning of the assay. At both time points, the total number of dead plants and total number of plants at the beginning of the assay were recorded for each observation. A Probit model was used to calculate the LC50 values for each of the compounds explored in this assay. A formulation control (with no active ingredient) was screened against a number of plants and factored into the final probit model. This formulation control had little-to-no effect by itself.

Series [2] deals with Waterhemp (Amaranthus tuberculatus). Briefly: Toxicity assay (probit LC50), waterhemp.
Description: Waterhemp seeds were obtained from the Department of Agronomy at Iowa State University. Individual seeds were sown for each pot (1.5″ wide×3″ deep) with approximately 7.5 g of soil for each plot. Five seeds/plot was sown into numerous plots. After one month of germination, germinated plants were counted in each plot and this number was used for the total number of plants challenged per plot in the toxicity assessment.
as §1

Series [3] concerns Cocklebur (Xanthium spp.). The series is described as follows: Toxicity assay (probit LC50), cocklebur.
Description: Cocklebur burs were obtained from the Department of Agronomy at Iowa State University. Individual seeds were sown for each pot (1.5″ wide×3″ deep) with approximately 7.5 g of soil for each plot. One bur/plot was sown into numerous plots. After one month of germination, germinated plants were counted in each plot and this number was used for the total number of plants challenged per plot in the toxicity assessment.
as §1

The subject of series [4] is various dicot weed species. Briefly: Selectivity assessment, dicot weed species compared to bluegrass. Particulars: range over various weed species.
Description: Kentucky bluegrass seeds were purchased in a bag under the commercial name of. Individual seeds were sown for each pot (1.5″ wide×3″ deep) with approximately 7.5 g of soil for each plot. 10 seeds/plot was sown into numerous plots. After one month of germination, germinated plants were counted in each plot and this number was used for the total number of plants challenged per plot in the toxicity assessment.
as §1, with “A formulation control (with no active ingredient) was screened against a number of plants and factored into the final probit model. This formulation control had little-to-no effect by itself.” left out

As for `O=C(O)COc1ccc(Cl)cc1Cl` [2,4-D, 2,4-dichlorophenoxyacetic acid], the “phytotoxic effect on wood sorrel, foliar spray” value in the series with Wood sorrel was “took much longer to die”; in the series with Wood sorrel (listed as 2,4-dichloroacetic acid) it was “plant death was not observed until much later; also recorded: uncontrolled growth and some chlorosis”. The “LC50 Value” in series [1] (Palmer Amaranth (Table 6)) came to 1300 ppm; in series [1] (Palmer Amaranth, 2-week post application, probit), 465.04 ppm; in series [1] (Palmer Amaranth, 3-day post application, probit) it was 1300 ppm; in series [2] (Waterhemp), 1800 ppm; in series [3] (Cocklebur), 770 ppm. Further, the “Selective Toxicity Compared to Bluegrass” value was determined as 3.54 in series [1] (Palmer Amaranth compared to bluegrass), 2.56 in series [2] (Waterhemp compared to bluegrass) and 5.97 in series [3] (Cocklebur compared to bluegrass). In series [1] (Palmer amaranth, 95% confidence intervals overlapped), the “phytotoxicity compared with the other compound” value is “marginally more phytotoxic than thymyloxyacetic acid”. Further, in series [1] (in vivo), the “LC50 at two weeks compared with three days after application (residual character in soil)” value is given as “significantly lower LC50 value”. Also, the “selectivity ratio compared to a blue grass species” value in series [4] is 2.56-5.97 fold.
